PubChem BioAssay (NCI)
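Values below derive from 48-hour exposures of cells grown in 96-well plates, with endpoints linearly interpolated between the two concentrations bracketing the appropriate inhibition level. The concentration for full growth arrest is given as TGI.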

Tests used:
Assay in all cases: NCI tumour cell line growth inhibition, 48 h
[1] = tested on: HCT-15 colon
[2] = tested on: UACC-62 melanoma
[3] = tested on: BT-549 breast
[4] = tested on: SK-OV-3 ovarian
[5] = tested on: ACHN renal
[6] = tested on: NCI-H460 lung
[7] = tested on: DU-145 prostate
[8] = tested on: OVCAR-5 ovarian
[9] = tested on: T-47D breast
[10] = tested on: A549 NSCLC
[11] = tested on: NCI-H522 lung
[12] = tested on: NCI/ADR-RES ovarian
[13] = tested on: SK-MEL-28 melanoma
[14] = tested on: SNB-19 CNS
[15] = tested on: TK-10 renal
[16] = tested on: KM12 colon
[17] = tested on: SF-295 CNS
[18] = tested on: SNB-75 CNS
[19] = tested on: EKVX NSCLC
[20] = tested on: MCF7 breast
[21] = tested on: SW-620 colon
[22] = tested on: HCC-2998 colon
[23] = tested on: LOX IMVI melanoma
[24] = tested on: NCI-H23 lung
[25] = tested on: RPMI-8226 leukemia
[26] = tested on: OVCAR-8 ovarian
[27] = tested on: MALME-3M melanoma
[28] = tested on: CCRF-CEM leukemia
[29] = tested on: U251 CNS
[30] = tested on: MDA-MB-231 breast
[31] = tested on: M14 melanoma
[32] = tested on: NCI-H226 lung
[33] = tested on: HT29 colon
[34] = tested on: SN12C renal
[35] = tested on: A498 renal
[36] = tested on: K-562 leukemia
[37] = tested on: HL-60(TB) leukemia
[38] = tested on: COLO 205 colon
[39] = tested on: RXF 393 renal
[40] = tested on: 786-0 renal
[41] = tested on: MOLT-4 leukemia
[42] = tested on: SF-539 CNS
[43] = tested on: MDA-MB-435
[44] = tested on: MDA-N
[45] = tested on: SF-268 CNS
[46] = tested on: SK-MEL-2 melanoma
[47] = tested on: HOP-62 NSCLC
[48] = tested on: SK-MEL-5 melanoma
[49] = tested on: UO-31 renal
[50] = tested on: OVCAR-3 ovarian
[51] = tested on: HS 578T breast
[52] = tested on: PC-3 prostate
[53] = tested on: IGROV1 ovarian
[54] = tested on: SR leukemia
[55] = tested on: OVCAR-4 ovarian
[56] = tested on: HCT-116 colon
[57] = tested on: HOP-92 NSCLC
[58] = tested on: CAKI-1 renal
[59] = tested on: UACC-257 melanoma

Measured: TGI

Cn1c(N)c(C(N)=O)[nH]c1=S
not listed: [56] | [57] | [58] | [59]
> 100 µM: all other assays above

O=C1Cc2c([nH]c3c(Cl)cccc23)-c2ccccc2N1
not listed: [12] | [19] | [22] | [39] | [46] | [58] | [59]
> 100 µM: all other assays above

COC(=O)C1CCOC(C)N1C(=O)OC(C)(C)C (configuration not stated)
not listed: [35] | [57]
> 100 µM: all other assays above

Nc1nc(N)c(Cn2ccnc2)c(=O)[nH]1
not listed: [13] | [21] | [22] | [28] | [37] | [41]
> 100 µM: all other assays above
